Structures can show the parent of a compound that is named as a salt. Where two headings read alike, the source gives them in different places.
Assays:
Assay type in all cases: cell-based
Xenopus laevis VDR = biological target: T1, Xenopus laevis VDR (Xenopus laevis, UniProt O13124); assay: luciferase reporter transactivation assay in HepG2-NTCP cells, GAL4/xlVDR LBD chimera with tk-UAS-Luc
T1 sequence (O13124 90-422): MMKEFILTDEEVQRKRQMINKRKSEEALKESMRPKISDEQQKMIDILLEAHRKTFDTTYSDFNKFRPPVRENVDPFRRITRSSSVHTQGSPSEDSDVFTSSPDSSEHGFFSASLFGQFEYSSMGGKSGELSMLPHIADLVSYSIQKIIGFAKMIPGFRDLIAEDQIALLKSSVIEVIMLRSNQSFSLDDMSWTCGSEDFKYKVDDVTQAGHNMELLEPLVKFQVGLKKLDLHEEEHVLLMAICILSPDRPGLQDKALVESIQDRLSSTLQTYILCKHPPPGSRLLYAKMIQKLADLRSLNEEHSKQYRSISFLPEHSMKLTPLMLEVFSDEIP

Sea lamprey VDR = biological target: T2, Sea lamprey VDR (Petromyzon marinus, UniProt Q7ZZY9)
T2 sequence (Q7ZZY9 92-406): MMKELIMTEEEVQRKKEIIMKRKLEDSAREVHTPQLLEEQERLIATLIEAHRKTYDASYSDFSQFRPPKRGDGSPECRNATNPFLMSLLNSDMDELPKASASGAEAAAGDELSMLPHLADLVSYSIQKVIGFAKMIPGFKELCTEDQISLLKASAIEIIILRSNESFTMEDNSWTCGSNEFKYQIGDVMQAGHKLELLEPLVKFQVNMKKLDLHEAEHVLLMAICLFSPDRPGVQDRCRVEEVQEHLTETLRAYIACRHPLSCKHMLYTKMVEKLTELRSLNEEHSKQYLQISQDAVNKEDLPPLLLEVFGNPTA

Zebrafish VDR = biological target: T3, Zebrafish VDR (Danio rerio, UniProt Q9PTN2); assay: luciferase reporter transactivation assay in HepG2-NTCP cells, GAL4/zfVDR LBD chimera with tk-UAS-Luc
T3 sequence (Q9PTN2 121-453): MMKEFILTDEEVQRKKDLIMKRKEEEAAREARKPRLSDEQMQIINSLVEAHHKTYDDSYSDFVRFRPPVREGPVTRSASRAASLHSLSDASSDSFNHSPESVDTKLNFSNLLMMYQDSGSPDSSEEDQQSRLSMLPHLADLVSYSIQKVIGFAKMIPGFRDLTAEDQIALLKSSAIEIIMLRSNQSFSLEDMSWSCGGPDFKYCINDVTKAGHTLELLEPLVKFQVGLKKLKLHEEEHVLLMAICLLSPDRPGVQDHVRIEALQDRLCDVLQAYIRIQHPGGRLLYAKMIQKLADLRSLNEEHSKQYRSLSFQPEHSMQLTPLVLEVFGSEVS

[1] = screening for activators, at least three concentrations of each drug
[2] = screening for activators, at least three concentrations of each drug, listed as testosterone

| Molecule | Effect on Xenopus laevis VDR (Xenopus laevis VDR; [1]) | Effect on sea lamprey VDR (Sea lamprey VDR; [1]) | Effect on zebrafish VDR (Zebrafish VDR; [1]) | further results |
| --- | --- | --- | --- | --- |
| 4-Pregnen-17,20b-diol-3-one sulfate | No effect | No effect | No effect |  |
| 17-Hydroxyprogesterone | No effect | No effect | No effect |  |
| C[C@]12CC[C@@H]3c4cc(O)c(O)cc4CC[C@H]3[C@@H]1CCC2=O [2-Hydroxyestrone] | No effect | No effect | No effect |  |
| O=C(O)CCc1cc(I)c(O)c(I)c1 [3,5-Diiodo-4-hydroxyphenylpropionic acid] | No effect | No effect | No effect |  |
| N[C@@H](Cc1cc(I)c(O)c(I)c1)C(=O)O.O.O [3,5-Diiodo-L-tyroside dihydrate] | No effect | No effect | No effect |  |
| C[C@@]12C=CC[C@H]1[C@@H]1CCC3=CC(=O)CC[C@]3(C)[C@H]1CC2 [4,16-Androstadien-3-one] | No effect | No effect | No effect |  |
| CC1=C(/C=C/C(C)=C/C=C/C(C)=C/C(=O)O)C(C)(C)CCC1O (stereo not shown) [4-Hydroxretinoic acid] | No effect | No effect | No effect |  |
| CC1=C(/C=C/C(C)=C/C=C/C(C)=C/C(=O)Nc2ccc(O)cc2)C(C)(C)CCC1 [4-Hydroxyphenylretinamide] | No effect | No effect | No effect |  |
| COc1c(O)ccc2c1CC[C@@H]1[C@@H]2CC[C@]2(C)C(=O)CC[C@@H]12 [4-Methoxyestrone] |  |  |  | Effect on Xenopus laevis VDR (Xenopus laevis VDR): No effect; Effect on sea lamprey VDR (Sea lamprey VDR): No effect; Effect on zebrafish VDR (Zebrafish VDR): No effect |
| C[C@]12CCC(=O)C=C1CC[C@@H]1[C@@H]2CC[C@@]2(C)[C@H]1CC[C@]2(O)C(=O)CO [4-Pregnen-17,21-diol-3,20-dione] | No effect | No effect | No effect |  |
| CCCCCC=CCC=CCC=CCC=CCCCC(=O)O [5,8,11,14-Eicosatetranoic acid] | No effect | No effect | No effect |  |
| C[C@@]12C=CC[C@H]1[C@@H]1CC=C3C[C@@H](O)CC[C@]3(C)[C@H]1CC2 [5,16-Androstadien-3b-ol] | No effect | No effect | No effect |  |
| CC[C@@]1(O)CC[C@H]2[C@@H]3CC=C4C[C@@H](OS(=O)(=O)O)CC[C@]4(C)[C@H]3CC[C@@]21C [5-Pregnen-3b,17-diol 3-sulfate] | No effect | No effect | No effect |  |
| C[C@]12CC[C@@H](O)C[C@@H]1CC[C@@H]1[C@@H]2CC[C@]2(C)[C@@H](O)CC[C@@H]12 [5a-Androstan-3a,17b-diol] | No effect | No effect | No effect |  |
| C[C@@]12CCC[C@H]1[C@@H]1CC[C@H]3C[C@@H](O)CC[C@]3(C)[C@H]1CC2 [5a-Androstan-3b-ol] | No effect | No effect | No effect |  |
| CC(CO)CCC[C@@H](C)[C@H]1[C@H](O)C[C@H]2[C@@H]3[C@H](O)C[C@H]4C[C@H](O)CC[C@]4(C)[C@H]3CC[C@]12C (stereo partly shown) [5a-Cholestan-3a,7a,16a,27-tetrol] | No effect | No effect | No effect |  |

| Molecule | Effect on Xenopus laevis VDR (Xenopus laevis VDR; [1]) | Effect on sea lamprey VDR (Sea lamprey VDR; [1]) | Effect on zebrafish VDR (Zebrafish VDR; [1]) | further results |
| --- | --- | --- | --- | --- |
| C[C@]12CC[C@@H](O)C[C@@H]1CC[C@@H]1[C@@H]2[C@@H](O)C[C@]2(C)[C@@H](C(=O)CO)CC[C@@H]12 [5a-Pregnan-3a,11b,21-triol-20-one] | No effect | No effect | No effect |  |
| C[C@]12CC[C@H](O)C[C@@H]1CC[C@@H]1[C@@H]2CC[C@]2(C)C(=O)CC[C@@H]12 [5a-androstan-3b-ol-17-one] | No effect | No effect | No effect |  |
| CC(C)CCC[C@@H](C)[C@H]1CC[C@H]2[C@@H]3CC[C@H]4C[C@@H](OS(=O)(=O)O)CC[C@]4(C)[C@H]3CC[C@]12C [5a-cholestan-3b-ol sulfate] | No effect | No effect | No effect |  |
| CC(O)C1CCC2C3CCC4CC(O)CCC4(C)C3CCC12C (stereo not shown) [5a-pregnan-3a,20a-diol] | No effect | No effect | No effect |  |
| CC(=O)[C@H]1CC[C@H]2[C@@H]3CC[C@H]4C[C@H](O)CC[C@]4(C)[C@H]3CC[C@]12C [5a-pregnan-3a-ol-20-one] | No effect | No effect | No effect |  |
| C[C@]12CC[C@@H](O)C[C@H]1CC[C@@H]1[C@@H]2[C@@H](O)C[C@]2(C)C(=O)CC[C@@H]12 [5b-Androstan-3a,11b-17-one] | No effect | No effect | No effect |  |
| C[C@]12CCC(=O)C=C1CC[C@@H]1[C@@H]2CC[C@]2(C)C(=O)CC[C@@H]12 [Androstenedione] |  | No effect | No effect |  |
| C[C@H](CCC(=O)O)[C@H]1CC[C@H]2[C@@H]3[C@H](O)C[C@@H]4C[C@H](O)CC[C@]4(C)[C@H]3C[C@H](O)[C@]12C [Cholic acid] | No effect |  | No effect |  |
| C[C@]12CC[C@H]3[C@@H](CCC4=CC(=O)CC[C@@]43C)[C@@H]1CC[C@H]2O [Epitestosterone] | No effect |  | No effect |  |
| C[C@]12CC[C@@H]3c4ccc(O)cc4CC[C@H]3[C@@H]1CCC2=O [Estrone] |  | No effect | No effect |  |
| COC(C)(C)CCCC(C)C/C=C/C(C)=C/C(=O)O (stereo not shown) [Methoprene acid] |  | No effect | No effect |  |
| CC#C[C@]1(O)CC[C@H]2[C@@H]3CCC4=CC(=O)CCC4=C3[C@@H](c3ccc(N(C)C)cc3)C[C@@]21C [Mifepristone] | No effect |  |  | Effect on sea lamprey VDR (Sea lamprey VDR): No effect |
| C[C@]12CC[C@H]3[C@@H](CCC4=CC(=O)CC[C@@]43C)[C@@H]1CC[C@@H]2O [Testosterone] | No effect |  | No effect | Effect on Xenopus laevis VDR (Xenopus laevis VDR; [2]): None of these three VDRs were activated; Effect on zebrafish VDR (Zebrafish VDR; [2]): None of these three VDRs were activated |
| CC1=C(/C=C/C(C)=C/C=C/C(C)=C/CO)C(C)(C)CCC1 [all-trans-Retinol] |  |  | No effect |  |
| S-Farnesyl-L-cysteine methyl ester |  | No effect | No effect |  |

Source: paper PMC2263054, “Functional evolution of the vitamin D and pregnane X receptors” (BMC Evolutionary Biology, 2007)
